Measurements reported in PMC3060972 (Peptides, 2011).

Legend:
E. coli [1] = experiment: Radial diffusion assay; format: cell-based; settings: qualitative comparison with wild type BF2
E. coli [2] = experiment: Membrane permeability by propidium iodide; format: cell-based; settings: qualitative comparison with wild type BF2; PI uptake in E. coli

Row | Sequence | ANTIMICROBIAL ACTIVITY compared to wild type (E. coli [1]) | MEMBRANE PERMEABILIZATION compared to wild type (E. coli [2])
1 | TRSSRAGLQFAPGRVHRLLRK [P11A/V12P] | LOWER | SIMILAR
2 | TRSSRAGLQFAVGRPHRLLRK [P11A/V15P] | LOWER | SIMILAR
3 | TRSSRAGLQFAVGRVHRLLRK [P11A] | LOWER | HIGHER
4 | TRSSRAPLQFAVGRVHRLLRK [P11A/G7P] | SIMILAR | HIGHER
